Reference: paper PMC9841589, “Identification of 2-Aminoacyl-1,3,4-thiadiazoles as Prostaglandin E2 and Leukotriene Biosynthesis Inhibitors” (ACS Medicinal Chemistry Letters, 2022)
Like-named read-outs stand apart in the source and are kept apart here.

How the values were obtained:
[1] = test system: 5-LO product formation in intact neutrophils (PMNL); assay: Determination of 5-LO products in neutrophils; type: cell-based; conditions: Homo sapiens
Description: Figure S3. Concentration-response curves for inhibition of 5-LO product formation in neutrophils.
Cells were pre-incubated with compounds 3, 6, 7 and 9 or 0.1% DMSO over 10 min at 37 °C, and then stimuli were added. On the left (A,C, E, G), cells were stimulated with 2.5 µM Ca 2+-ionophore A23187 over 10 min; on the right (B, D, F, H), cells were stimulated with 2.5 µM Ca 2+-ionophore A23187 plus 20 µM arachidonic acid over 10 min. Data are expressed as percentage of uninhibited control (100%), means, S.E.M., n = 3. […]
Determination of 5-LO products in neutrophils
Freshly isolated neutrophils were resuspended in PBS buffer containing 0.1% glucose and 1 mM CaCl2 to a final cell density of 5 × 10 6. Cells were pre-incubated with compounds 3, 6, 7, 9 or DMSO vehicle (0.1%) at 37 °C for 10 min. Then, 2.5 µM Ca 2+-ionophore A23187 (with or without supplementation of 20 µM of arachidonic acid) was added as stimulus, and cells were left at 37 °C for 10 min. 1 mL of ice-cold methanol was used to stop the reaction of 5-LO product formation on ice, and 530 µL of PBS plus HCl and PGB 1 (as internal standard) were added. Finally, cells were centrifuged (2000 x g) over 10 min at room temperature, and 5-LO products were extracted by solid-phase extraction, and they were quantified by RP-HPLC as described above. […]

[2] = test system: 5-LO product formation in human M1 macrophages; assay: Determination of LO products in human macrophages; type: cell-based; conditions: 10 µM, activated by Staphylococcus aureus for 90 min
Description: Figure S4. Human monocyte-derived macrophages were pre-treated with test compounds (10 µM) or vehicle 15 min prior stimulation. Cells were then stimulated with S. aureus for 90 min. Data are expressed as percentage of the mean of the 100% control DMSO of n=3 experiments. […]
Determination of LO products in human macrophages
Human M1 macrophages (2 x 10^6 /mL) were pre-treated with test compounds or vehicle (DMSO, 0.1%) for 15 min. Afterward, 1% Staphylococcus aureus 6850wt-conditioned medium (SACM) was added for 90 minutes at 37 °C in order to induce LO product formation. The reaction was stopped by transferring supernatants (1 mL) into 2 mL ice-cold MeOH. After addition of the deuterated LM standards (200 nM d8-5S-HETE, d4-LTB4, d5-LXA4, d5-RvD2, d4-PGE2 and 10 µM d8-AA; Cayman Chemical/Biomol GmbH, Hamburg, Germany), samples were kept at −20 °C for 60 min and then centrifuged (1,200×g, 4°C, 10 min). Solid-phase C18 cartridges were equilibrated with 6 mL methanol before the addition of 6 mL H2O. Then, 9 mL acidified H2O (pH 3.5, HCl) was added, and the samples were loaded onto the conditioned C18 columns that were subsequently washed with 6 mL H2O, followed by 6 mL n-hexane. The LM were eluted with 6 mL of methyl formate, samples were brought to dryness using an evaporation system (TurboVap LV, Biotage) and immediately […]
resuspended in methanol-water (50:50 vol/vol) for UPLC-MS-MS automated injections. The UPLC-MS-MS system consisted of an Acquity UPLC BEH C18 column (1.7 µm, 2.1 × 50 mm, Waters) and an AcquityTM UPLC (Waters) as well as a QTRAP 5500 mass spectrometer (Sciex, Darmstadt, Germany) equipped with an electrospray ionization source. The QTrap 5500 was operated in negative ionization mode using scheduled multiple reaction monitoring (MRM) coupled with the information-dependent acquisition (IDA) and an enhanced product ion scan (EPI). The scheduled MRM window was 90 s, and each LM parameter was optimized individually. LOX product analysis, using an MRM method with diagnostic ion fragments and identification, was performed as described previously.922 […]
Following incubations of 24 h, cells were collected with a cell scraper and, after centrifugation at 14000 × g for 10 min at 4 °C, the supernatant was collected and stored at −80°C for ELISA analysis 1023.
Male CD-1 mice (25–30 g of weight) were obtained from Charles River (Milan, Italy) and kept in an animal care facility under controlled temperature, humidity, with ad libitum access to water and standard laboratory chow diet. All experimental procedures were carried out according to the international and national law and policies (EU Directive 2010/63/EU for animal experiments, ARRIVE guidelines, and the Basel declaration including the 3R concept)11,1224, 25. […]

[3] = 2.5 µM A23187, n = 3, read-out: 5-LO product formation on PMNL, IC50 value ± SEM, stimulus: A23187
[4] = 2.5 µM A23187 plus 20 μM arachidonic acid, n = 3, read-out: 5-LO product formation on PMNL, IC50 value ± SEM, stimulus: A23187 + AA

O=C(Nc1nnc(-c2ccc(-c3cccc(O)c3)cc2)s1)c1ccccc1Br [compound 3]
IC50 [1, 3]: 4.9 ± 0.5 µM
IC50 [1, 4]: 5.2 ± 1.2 µM
cellular 5-LO product formation in pro-inflammatory macrophages [2]: potent inhibition of cellular 5-LO product formation

Nc1ccccc1-c1ccc(-c2nnc(NC(=O)c3ccccc3Br)s2)cc1 [compound 7]
IC50 [1, 3]: 4.2 ± 1.4 µM
IC50 [1, 4]: 2.3 ± 0.8 µM
cellular 5-LO product formation in pro-inflammatory macrophages [2]: potent inhibition of cellular 5-LO product formation

Cc1cc(C(=O)Nc2nnc(-c3ccc(-c4ccccc4N)cc3)s2)cc(Cl)n1 [compound 6]
IC50 [1, 3]: 4.8 ± 1.9 µM
IC50 [1, 4]: 6.9 ± 2.2 µM
cellular 5-LO product formation in pro-inflammatory macrophages [2]: potent inhibition of cellular 5-LO product formation

Nc1ccccc1-c1ccc(-c2nnc(NC(=O)c3c(Cl)ccnc3Cl)s2)cc1 [compound 9]
IC50 [1, 3]: 2.1 ± 0.3 µM
IC50 [1, 4]: 4.2 ± 0.3 µM
cellular 5-LO product formation in pro-inflammatory macrophages [2]: potent inhibition of cellular 5-LO product formation
